In ChEMBL document CHEMBL1201862, “PubChem BioAssay data set” (2004):
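All cell lines were grown in 96-well plates and treated with compound for 48 hours. GI50 marks 50% less growth.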 Active and inactive are the calls of the source. Cut-off read from the data, not from the text of the source: active = GI50 up to about 1.1 µM and inactive = higher.

Assays:
Test in all cases: NCI tumour cell line growth inhibition, 48 h
[1] = test system: HOP-92
[2] = test system: SK-MEL-28
[3] = test system: SN12C
[4] = test system: HCT-15
[5] = test system: OVCAR-4
[6] = test system: SF-295
[7] = test system: SR
[8] = test system: PC-3
[9] = test system: SW-620
[10] = test system: SF-539
[11] = test system: A498
[12] = test system: U-251
[13] = test system: IGROV-1
[14] = test system: SK-OV-3
[15] = test system: K562
[16] = test system: MDA-MB-435
[17] = test system: OVCAR-3
[18] = test system: COLO 205
[19] = test system: MOLT-4
[20] = test system: HL-60

Structure (SMILES)	GI50 [1]	GI50 [2]	GI50 [3]	GI50 [4] [µM]	GI50 [5]	GI50 [6]	GI50 [7]	GI50 [8]	GI50 [9]	GI50 [10]	GI50 [11]	GI50 [12]	GI50 [13]	GI50 [14]	GI50 [15]	GI50 [16]	GI50 [17]	GI50 [18]	GI50 [19]	GI50 [20]
Cc1c(N2CCCC2)cc2c(c1NC(=O)c1ccccc1Cl)C(C)(C)CC2(C)C	11.5 µM (inactive)	17.6 µM (inactive)	16.2 µM (inactive)	14.6	15.7 µM (inactive)	13.3 µM (inactive)	14.7 µM (inactive)	15.5 µM (inactive)	16 µM (inactive)	19.8 µM (inactive)	15 µM (inactive)	14.5 µM (inactive)	13.6 µM (inactive)	13.1 µM (inactive)	35 µM (inactive)	14.4 µM (inactive)	8.3 µM (inactive)	18.2 µM (inactive)	–	–
C=C1CC2(CC(c3ccccc3Cl)OC(c3ccccc3Cl)C2)OC1=O (stereo not drawn)	1.87 µM (inactive)	1.87 µM (inactive)	2.37 µM (inactive)	2.56	3.9 µM (inactive)	8.97 µM (inactive)	2.52 µM (inactive)	2.89 µM (inactive)	1.98 µM (inactive)	1.96 µM (inactive)	9.73 µM (inactive)	8.07 µM (inactive)	2.02 µM (inactive)	6.87 µM (inactive)	2.26 µM (inactive)	1.8 µM (inactive)	2.91 µM (inactive)	2.31 µM (inactive)	2.4 µM (inactive)	1.05 µM (active)
COc1cc(C2SCC(=O)N2c2ccc(-n3c(-c4ccccc4)nc4ccccc4c3=O)cc2)ccc1O (stereo not drawn)	13.3 µM (inactive)	> 100 µM (inactive)	–	64.1	65.6 µM (inactive)	84.5 µM (inactive)	26 µM (inactive)	> 100 µM (inactive)	> 100 µM (inactive)	> 100 µM (inactive)	> 100 µM (inactive)	84.9 µM (inactive)	> 10 µM (inactive)	82 µM (inactive)	> 100 µM (inactive)	> 100 µM (inactive)	> 100 µM (inactive)	> 100 µM (inactive)	24.2 µM (inactive)	> 100 µM (inactive)
CC1OC(OC2C(OC(=O)[C@]34CCC(C)(C)C[C@H]3C3=CC[C@@H]5[C@@]6(C)CC[C@H](OC7OC(C(=O)O)C(O)C(O)C7O)C(C)(C)[C@@H]6CC[C@@]5(C)[C@]3(C)C[C@H]4O)OCC(O)C2O)C(O)C(OC2OCC(O)(CO)C2O)C1OC1OCC(O)C(O)C1O (stereo partly drawn)	12.1 µM (inactive)	4.49 µM (inactive)	3.37 µM (inactive)	16.4	10.5 µM (inactive)	11.9 µM (inactive)	3.94 µM (inactive)	8.55 µM (inactive)	10.9 µM (inactive)	–	1.83 µM (inactive)	9.64 µM (inactive)	16 µM (inactive)	15.6 µM (inactive)	10.3 µM (inactive)	6.59 µM (inactive)	14 µM (inactive)	1.81 µM (inactive)	13.6 µM (inactive)	3.19 µM (inactive)
Nc1nc(N)c2c(-c3ccccc3)ccnc2n1	81.7 µM (inactive)	40.5 µM (inactive)	> 100 µM (inactive)	–	> 100 µM (inactive)	> 100 µM (inactive)	> 100 µM (inactive)	> 100 µM (inactive)	39.7 µM (inactive)	–	> 100 µM (inactive)	> 100 µM (inactive)	> 100 µM (inactive)	> 100 µM (inactive)	> 100 µM (inactive)	> 100 µM (inactive)	> 100 µM (inactive)	> 100 µM (inactive)	> 10 µM (inactive)	> 100 µM (inactive)
NNC(=S)N1CCN(C(=S)NN)CC1	> 100 µM (inactive)	> 100 µM (inactive)	> 100 µM (inactive)	–	28.8 µM (inactive)	> 100 µM (inactive)	> 100 µM (inactive)	> 100 µM (inactive)	> 100 µM (inactive)	–	4.97 µM (inactive)	> 100 µM (inactive)	43.4 µM (inactive)	> 100 µM (inactive)	–	> 100 µM (inactive)	> 100 µM (inactive)	65.8 µM (inactive)	> 100 µM (inactive)	32.4 µM (inactive)
CC(C)NC(=O)OCc1c(COC(=O)NC(C)C)n(C)c2c1ccc1cc(Cl)c(Cl)cc12	11.4 µM (inactive)	–	–	12.7	20.1 µM (inactive)	16.6 µM (inactive)	2.64 µM (inactive)	14.9 µM (inactive)	11.3 µM (inactive)	13.5 µM (inactive)	1.75 µM (inactive)	15.9 µM (inactive)	10.5 µM (inactive)	21.6 µM (inactive)	4.44 µM (inactive)	6.43 µM (inactive)	16.6 µM (inactive)	10.9 µM (inactive)	3.97 µM (inactive)	–
CCCCCCCCCCCCCCCCCC(=O)Nc1ccn(C2CCC(COP(=O)(O)O)O2)c(=O)n1 (stereo not drawn)	> 100 µM (inactive)	> 100 µM (inactive)	> 100 µM (inactive)	> 100	> 100 µM (inactive)	> 100 µM (inactive)	> 100 µM (inactive)	> 100 µM (inactive)	> 100 µM (inactive)	> 100 µM (inactive)	> 100 µM (inactive)	> 100 µM (inactive)	> 100 µM (inactive)	> 100 µM (inactive)	> 100 µM (inactive)	> 100 µM (inactive)	> 100 µM (inactive)	> 100 µM (inactive)	> 100 µM (inactive)	–
Cc1ccc(S(=O)(=O)[C@@H](Cl)[C@H]2N=C(Cl)NN=C2c2ccccc2)cc1	23 µM (inactive)	19.4 µM (inactive)	21.7 µM (inactive)	22.2	13.9 µM (inactive)	41.4 µM (inactive)	27.2 µM (inactive)	16.7 µM (inactive)	17.2 µM (inactive)	30.1 µM (inactive)	15.5 µM (inactive)	21.5 µM (inactive)	21.8 µM (inactive)	32.6 µM (inactive)	29.5 µM (inactive)	22.1 µM (inactive)	14.7 µM (inactive)	26.9 µM (inactive)	20.6 µM (inactive)	–
c1cc(-c2cnc(-c3ccc4c(c3)CCCO4)o2)ccn1	22.9 µM (inactive)	18.1 µM (inactive)	18.5 µM (inactive)	16.2	14.1 µM (inactive)	20 µM (inactive)	0.524 µM (active)	11.8 µM (inactive)	–	9.1 µM (inactive)	12.3 µM (inactive)	16.7 µM (inactive)	17.9 µM (inactive)	20.3 µM (inactive)	5.05 µM (inactive)	15.1 µM (inactive)	16.4 µM (inactive)	18.5 µM (inactive)	5.62 µM (inactive)	4.33 µM (inactive)
CCn1c2ccccc2c2cc(Nc3cc(C)[nH]c(=O)n3)ccc21	> 100 µM (inactive)	> 100 µM (inactive)	> 100 µM (inactive)	> 100	> 100 µM (inactive)	4.53 µM (inactive)	0.0199 µM (active)	> 100 µM (inactive)	> 100 µM (inactive)	> 100 µM (inactive)	> 100 µM (inactive)	> 100 µM (inactive)	–	> 100 µM (inactive)	0.47 µM (active)	0.33 µM (active)	> 100 µM (inactive)	> 100 µM (inactive)	–	0.255 µM (active)
